# Results from US20240016941A1, “COMBINATION THERAPY” (priority 2020, published 2024).
# How the values were obtained:
# [1] = target: T1, LasB elastase activity of dialysed supernatant from P. aeruginosa PAO1 (Pseudomonas aeruginosa, UniProt P14756); assay: Elastin Congo-Red assay to determine % inhibition (dialysed PAO1 supernatant); type: biochemical; conditions: read-out: Elastin hydrolysis % inhibition @ 25 μM inhibitor concentration
# T1 construct: Culture supernatants are recovered by centrifugation and filtrated through a 0.22 μM filter; endogenous in cells; host or cells: P. aeruginosa strain PAO1, culture supernatant, filtered and dialysed
# Description: (§1) Experiments were therefore conducted (1) to measure the potency of inhibition of compounds of the invention against purified Pseudomonas aeruginosa LasB enzyme and also experiments were conducted (2) to measure the ability of compounds of the invention to inhibit LasB-catalysed elastin degradation. The first assay uses a commercial fluorescent synthetic peptide and purified LasB enzyme. The LasB hydrolysis kinetics are measured allowing the determination of the IC50 and Ki of the inhibitors; the second is a more physiological assay using dialysed Pseudomonas aeruginosa supernatant as source of enzyme, plus its natural substrate Elastin. It is an “end point assay” that determines the percentage of LasB inhibition by each compound for one particular time point and inhibitor concentration. Technical details are described below:
# The Elastin assay uses as source of enzyme dialysed supernatant from P. aeruginosa PAO1 and the Elastin Congo-Red as substrate. The natural LasB substrate, elastin, is complexed with the congo-red dye (Elastin Congo-Red, ECR). The elastolysis activity from the culture supernatant will degrade elastin and release the congo-red dye into the supernatant. This red dye release can be measured with a spectrophotometer.
# Method: To determine LasB elastase activity and assess compound inhibition, an overnight culture of P. aeruginosa strain PAO1 is diluted in LB medium. After reaching an OD600nm of 0.6, this culture is diluted and incubated for additional 18-24 hours in a shaking incubator. Culture supernatants are recovered by centrifugation and filtrated through a […] filter. These supernatants are dialysed (filtration molecules <20 kDa) into a 50 mM Tris-HCl pH 7.4, 2.5 mM CaCl2 solution at 4° C. under agitation for 24 hours. Supernatant dialysed is then mixed volume/volume with the ECR suspension (20 mg/mL of ECR in 100 mM Tris-HCl pH 7.4 buffer supplemented with 1 mM CaCl2)) supplemented with Triton X100 (final concentration of 0.01%) in presence of DMSO (positive control) and/or different concentrations of compound (routinely 50 to 1.56 μM). As a negative control, the dialysed supernatant is replaced by Tris-HCl solution (50 mM Tris-HCl pH 7.4, 2.5 mM CaCl2). The mixed reaction is then incubated overnight in a 37° C. shaking incubator. The reaction supernatant is recovered by centrifugation and the release of congo-red is measured by its absorbance at 495 nm (OD495nm).
# Percentage inhibition is determined using the following equation:
# ((OD495 nm value of positive control−OD495nm value of negative control)−(OD495nm value of treated supernatant−OD495nm value of negative control))/(OD495nm value of positive control−OD495nm value of negative control)×100.
# [2] = target: T2, purified LasB protein from P. aeruginosa (Pseudomonas aeruginosa, UniProt P14756); assay: Fluorometric assay to determine Ki (purified LasB, Abz-Ala-Gly-Leu-Ala-p-Nitro-Benzyl-Amide substrate); type: biochemical
# T2 construct: purchased Merck or Charles River Laboratories
# Description: as §1
# This assay uses commercially available substrate (Abz-Ala-Gly-Leu-Ala-p-Nitro-Benzyl-Amide (Ex: 340 nm, Em: 415 nm) from Peptide International) and purified LasB protein from P. aeruginosa (provided by Merck or Charles River Laboratories). It is performed to determine LasB elastase activity and assess compound inhibition in 96-well plate format. All compounds of Formula (I) were assessed using the method described below.
# Method: 10 to 140 ng/ml purified LasB is incubated with 250 μM Abz-Ala-Gly-Leu-Ala-p-Nitro-Benzyl-Amide in 50 mM Tris-HCl pH 7.4, 2.5 mM CaCl2), 0.01% of Triton X100 at 37° C. LasB activity (corresponding to fluorescence emission induced by substrate hydrolysis) is measured over 30 min at 37° C. with a fluorescence plate reader such as the Perkin Elmer Envision or similar. Different range of inhibitor concentrations are routinely assessed depending of inhibitor potency from 0.0016 to 200 μM (2-fold dilutions series) in order to determine IC50.
# The equation used to calculate the Ki from IC50 is: Ki=IC50/(1+([S]/Km)) where [S]=250 μM and Km=214 μM.
# T1 sequence (P14756 198-498): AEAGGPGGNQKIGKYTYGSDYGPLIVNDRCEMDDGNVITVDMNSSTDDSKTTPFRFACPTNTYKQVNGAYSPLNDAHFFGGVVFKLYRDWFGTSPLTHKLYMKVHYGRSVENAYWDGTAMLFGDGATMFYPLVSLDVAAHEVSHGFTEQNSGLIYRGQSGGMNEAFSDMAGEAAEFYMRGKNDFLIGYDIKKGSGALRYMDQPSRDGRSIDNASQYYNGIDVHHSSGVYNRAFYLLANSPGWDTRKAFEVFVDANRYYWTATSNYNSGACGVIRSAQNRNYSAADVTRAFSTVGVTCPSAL
# T2 sequence (P14756 198-498): as above
Structure (SMILES),inhibition at 25 µM [1] [%],Ki [2] [nM]
"CN1CCN(C(=O)c2ccc3sc(CNC(=O)C4(CC(=O)O)Cc5ccccc5C4)nc3c2)CC1 [Example 27, 2-[2-[[5-(4-methylpiperazine-1-carbonyl)-1,3-benzothiazol-2-yl]methylcarbamoyl]indan-2-yl]acetic acid]",60 to 80,50 to 200
"COc1cc2sc(CNC(=O)C3(CC(=O)[O-])Cc4cc(F)c(F)cc4C3)nc2cc1OCCC[N+]1(C)CCOCC1 [Example 15, 2-[5,6-difluoro-2-[[6-methoxy-5-[3-(4-methylmorpholin-4-ium-4-yl)propoxy]-1,3-benzothiazol-2-yl]methylcarbamoyl]indan-2-yl]acetate]",60 to 80,50 to 200
"CN(C)C1CN(C(=O)c2ccc3sc(CNC(=O)C4(CC(=O)O)Cc5ccccc5C4)nc3c2)C1 [Example 32, 2-[2-[[5-[3-(dimethylamino)azetidine-1-carbonyl]-1,3-benzothiazol-2-yl]methylcarbamoyl]indan-2-yl]acetic acid]",60 to 80,50 to 200
"COc1cc2sc(CNC(=O)C3(CC(=O)[O-])Cc4ccccc4C3)nc2cc1C(=O)N1CCOC(C[N+](C)(C)C)C1 (stereo not drawn) [Example 41, 2-[2-[[6-methoxy-5-[2-[(trimethylammonio)methyl]morpholine-4-carbonyl]-1,3-benzothiazol-2-yl]methylcarbamoyl]indan-2-yl]acetate]",60 to 80,50 to 200
"NC1CCN(S(=O)(=O)c2cccc3sc(CNC(=O)C4(CC(=O)O)Cc5ccccc5C4)nc23)C1 (stereo not drawn) [Example 6, 2-[2-[[4-(3-aminopyrrolidin-1-yl)sulfonyl-1,3-benzothiazol-2-yl]methylcarbamoyl]indan-2-yl]acetic acid]",60 to 80,50 to 200
"COc1cc2sc(CNC(=O)C3(CC(=O)[O-])Cc4cc(F)c(F)cc4C3)nc2cc1OCC[N+]1(C)CCOCC1 [Example 13, 2-[5,6-difluoro-2-[[6-methoxy-5-[2-(4-methylmorpholin-4-ium-4-yl)ethoxy]-1,3-benzothiazol-2-yl]methylcarbamoyl]indan-2-yl]acetate]",60 to 80,50 to 200
"CC[N+](C)(CC)CCCOc1cc2nc(CNC(=O)C3(CC(=O)[O-])Cc4ccccc4C3)sc2cc1OC [Example 18, 2-[2-[[5-[3-[diethyl(methyl)ammonio]propoxy]-6-methoxy-1,3-benzothiazol-2-yl]methylcarbamoyl]indan-2-yl]acetate]",60 to 80,< 50
"COc1cc2sc(CNC(=O)C3(CC(=O)O)Cc4cc(F)c(F)cc4C3)nc2cc1C(=O)N1CCN(C)CC1 [Example 34, 2-[5,6-difluoro-2-[[6-methoxy-5-(4-methylpiperazine-1-carbonyl)-1,3-benzothiazol-2-yl]methylcarbamoyl]indan-2-yl]acetic acid]",> 80,< 50
"COc1cc2sc(CNC(=O)C3(CC(=O)O)Cc4ccccc4C3)nc2cc1C(=O)N1CCC(N(C)C)CC1 [Example 38, 2-[2-[[5-[4-(dimethylamino)piperidine-1-carbonyl]-6-methoxy-1,3-benzothiazol-2-yl]methylcarbamoyl]indan-2-yl]acetic acid]",60 to 80,50 to 200
"COc1cc2sc(CNC(=O)C3(CC(=O)[O-])Cc4cc(F)c(F)cc4C3)nc2cc1C(=O)N1CC([N+](C)(C)C)C1 [Example 43, 2-[5,6-difluoro-2-[[6-methoxy-5-[3-(trimethylammonio)azetidine-1-carbonyl]-1,3-benzothiazol-2-yl]methylcarbamoyl]indan-2-yl]acetate]",60 to 80,50 to 200
"O=C(O)CC1(C(=O)NCc2nc3c(S(=O)(=O)N4CCCC4)cccc3s2)Cc2ccccc2C1 [Example 3, 2-[2-[(4-pyrrolidin-1-ylsulfonyl-1,3-benzothiazol-2-yl)methylcarbamoyl]indan-2-yl]acetic acid]",60 to 80,50 to 200
"COc1cc2sc(CNC(=O)C3(CC(=O)[O-])Cc4ccccc4C3)nc2cc1OCCC[N+]1(C)CCOCC1 [Example 16, 2-[2-[[6-methoxy-5-[3-(4-methylmorpholin-4-ium-4-yl)propoxy]-1,3-benzothiazol-2-yl]methylcarbamoyl]indan-2-yl]acetate]",60 to 80,< 50
"COc1cc2sc(CNC(=O)C3(CC(=O)[O-])Cc4ccccc4C3)nc2cc1OCC1CC[N+](C)(C)CC1 [Example 17, 2-[2-[[5-[(1,1-dimethylpiperidin-1-ium-4-yl)methoxy]-6-methoxy-1,3-benzothiazol-2-yl]methylcarbamoyl]indan-2-yl]acetate]",60 to 80,50 to 200
"COc1cc2sc(CNC(=O)C3(CC(=O)[O-])Cc4ccccc4C3)nc2cc1S(=O)(=O)N1CCC([N+](C)(C)C)CC1 [Example 47, 2-[2-[[6-methoxy-5-[[4-(trimethylammonio)-1-piperidyl]sulfonyl]-1,3-benzothiazol-2-yl]methylcarbamoyl]indan-2-yl]acetate]",60 to 80,50 to 200
"CN1CCN(CCOc2ccc3sc(CNC(=O)C4(CC(=O)O)Cc5ccccc5C4)nc3c2)CC1 [Example 25, 2-[2-[[5-[2-(4-methylpiperazin-1-yl)ethoxy]-1,3-benzothiazol-2-yl]methylcarbamoyl]indan-2-yl]acetic acid]",60 to 80,200 to 10000
"COc1cc2sc(CNC(=O)C3(CC(=O)O)Cc4ccccc4C3)nc2cc1S(=O)(=O)N1CCN(C)CC1 [Example 45, 2-[2-[[6-methoxy-5-(4-methylpiperazin-1-yl)sulfonyl-1,3-benzothiazol-2-yl]methylcarbamoyl]indan-2-yl]acetic acid]",60 to 80,50 to 200
"COc1cc2sc(CNC(=O)C3(CC(=O)[O-])Cc4cc(F)c(F)cc4C3)nc2cc1C(=O)N1CC[N+](C)(C)CC1 [Example 35, 2-[2-[[5-(4,4-dimethylpiperazin-4-ium-1-carbonyl)-6-methoxy-1,3-benzothiazol-2-yl]methylcarbamoyl]-5,6-difluoro-indan-2-yl]acetate]",60 to 80,50 to 200
"COc1cc2sc(CNC(=O)C3(CC(=O)O)Cc4cc(F)c(F)cc4C3)nc2cc1OCC(=O)N1CCN(C)CC1 [Example 12, 2-[5,6-difluoro-2-[[6-methoxy-5-[2-(4-methylpiperazin-1-yl)-2-oxo-ethoxy]-1,3-benzothiazol-2-yl]methylcarbamoyl]indan-2-yl]acetic acid]",60 to 80,50 to 200
"COc1cc2sc(CNC(=O)C3(CC(=O)O)Cc4ccccc4C3)nc2cc1OCC(=O)N1CCN(C)CC1 [Example 8, 2-[2-[[6-methoxy-5-[2-(4-methylpiperazin-1-yl)-2-oxo-ethoxy]-1,3-benzothiazol-2-yl]methylcarbamoyl]indan-2-yl]acetic acid]",60 to 80,50 to 200
"CN(C)CCNC(=O)c1ccc2sc(CNC(=O)C3(CC(=O)O)Cc4ccccc4C3)nc2c1 [Example 28, 2-[2-[[5-[2-(dimethylamino)ethylcarbamoyl]-1,3-benzothiazol-2-yl]methylcarbamoyl]indan-2-yl]acetic acid]",–,200 to 10000
